Calls of active or inactive are those of the source. No cut-off for these calls is given here.
How the values were obtained:
HT-144 [1] = experiment: Induction of morphological changes in human HT144 cells assessed as cell rounding at 10 uM incubated for 24 hrs by tubulin-Cy2 and TOPRO-3 staining based confocal microscopic method; type: functional
HT-144 [2] = experiment: Induction of morphological changes in human HT144 cells assessed as membrane blebbing at 10 uM incubated for 24 hrs by tubulin-Cy2 and TOPRO-3 staining based confocal microscopic method; type: functional, cell-based
[3] = molecular target: Cathepsin B (Homo sapiens) (UniProt P07858); experiment: Inhibition of human recombinant cathepsin B assessed as second-order inhibition rate constant using Z-RR-MCA as substrate incubated for 10 mins by spectrofluorimetric method
[4] = molecular target: Procathepsin L (Homo sapiens) (UniProt P07711); experiment: Inhibition of human recombinant cathepsin L expressed in Pichia pastoris assessed as second-order inhibition rate constant using Z-FR-MCA as substrate incubated for 10 mins by spectrofluorimetric method
[5] = molecular target: Cathepsin S (Homo sapiens) (UniProt P25774); experiment: Inhibition of human recombinant cathepsin S assessed as second-order inhibition rate constant using Z-FR-MCA as substrate incubated for 10 mins by spectrofluorimetric method
B16F10Nex2 [6] = experiment: Cytotoxicity against mouse B16F10Nex2 cells assessed as reduction in cell viability incubated for 16 hrs by MTT assay; type: functional, cell-based; details: for IC50: B16F10Nex2, 16 h
HUVEC [7] = experiment: Cytotoxicity against human HUVEC cells assessed as reduction in cell viability incubated for 16 hrs by MTT assay; type: cell-based; details: for IC50: Homo sapiens, HUVEC; for Activity: human, huvec
NIH3T3 = experiment: Cytotoxicity against mouse 3T3 cells assessed as reduction in cell viability incubated for 16 hrs by MTT assay; type: cell-based; details: for IC50: Mus musculus, NIH3T3, 16 h; for Activity: mouse, nih3t3, 16 h
SK-MEL-25 = experiment: Cytotoxicity against human SK-MEL-25 cells assessed as reduction in cell viability incubated for 16 hrs by MTT assay; type: functional, cell-based; details: for IC50: SK-MEL-25, 16 h
SK-MEL-28 = experiment: Cytotoxicity against human SK-MEL-28 cells assessed as reduction in cell viability incubated for 16 hrs by MTT assay; type: functional, cell-based; details: for IC50: SK-MEL-28, 16 h
A2058 = experiment: Cytotoxicity against human A2058 cells assessed as reduction in cell viability incubated for 16 hrs by MTT assay; type: functional, cell-based; details: for IC50: A2058, 16 h
MeWo = experiment: Cytotoxicity against human MeWo cells assessed as reduction in cell viability incubated for 16 hrs by MTT assay; type: functional, cell-based
HeLa = experiment: Cytotoxicity against human HeLa cells assessed as reduction in cell viability incubated for 16 hrs by MTT assay; type: functional, cell-based
HT-144 [8] = experiment: Cytotoxicity against human HT144 cells assessed as reduction in cell viability incubated for 16 hrs by MTT assay; type: functional, cell-based
B16F10Nex2 [9] = experiment: Antitumor activity against mouse B16F10Nex2 cells transplanted in C57BL/6 mouse assessed as reduction in lungs superficial nodules at 20 uM, ip administered every other day for 12 days and measured 21 days post transplantation relative to control; type: functional
HUVEC [10] = experiment: Anti-angiogenic activity in human HUVEC cells assessed as inhibition in pro-angiogenic structures formation in presence of fetal calf serum at 0.062 uM incubated for 18 hrs by inverted light microscopy based matrigel assay; type: functional
B16F10Nex2 [11] = experiment: Inhibition of cell adhesion of mouse B16F10Nex2 cells assessed as reduction in cell adhesion to type 1 collagen at 2 uM incubated for 3 hrs by toluidine blue staining based assay; type: functional
B16F10Nex2 [12] = experiment: Inhibition of cell adhesion of mouse B16F10Nex2 cells assessed as reduction in cell adhesion to type 4 collagen at 2 uM incubated for 3 hrs by toluidine blue staining based assay; type: functional
B16F10Nex2 [13] = experiment: Inhibition of cell adhesion of mouse B16F10Nex2 cells assessed as reduction in cell adhesion to fibronectin at 2 uM incubated for 3 hrs by toluidine blue staining based assay; type: functional
B16F10Nex2 [14] = experiment: Inhibition of cell adhesion of mouse B16F10Nex2 cells assessed as reduction in cell adhesion to laminin at 2 uM incubated for 3 hrs by toluidine blue staining based assay; type: functional
B16F10Nex2 [15] = experiment: Antimigratory activity against mouse B16F10Nex2 cells assessed as reduction in cell migration towards wound area at 20 uM measured every hour for 24 hrs by scratch wound-healing assay relative to control; type: functional; details: B16F10Nex2, 24 h
HUVEC [16] = experiment: Anti-invasive activity in human HUVEC cells assessed as reduction in invasive potential at 20 uM incubated for 24 hrs by Giemsa staining based matrigel assay; type: functional, cell-based
B16F10Nex2 [17] = experiment: Anti-invasive activity in mouse B16F10Nex2 cells assessed as reduction in invasive potential at 20 uM incubated for 24 hrs by Giemsa staining based matrigel assay relative to control; type: functional; details: B16F10Nex2, 24 h
B16F10Nex2 [18] = experiment: Induction of morphological changes in mouse B16F10Nex2 cells at 10 uM incubated for 24 hrs by tubulin-Cy2 and TOPRO-3 staining based confocal microscopic method; type: functional, cell-based
HT-144 [19] = experiment: Induction of morphological changes in human HT144 cells at 10 uM incubated for 24 hrs by tubulin-Cy2 and TOPRO-3 staining based confocal microscopic method; type: functional, cell-based
B16F10Nex2 [20] = experiment: Induction of morphological changes in mouse B16F10Nex2 cells assessed as cell rounding at 10 uM incubated for 24 hrs by tubulin-Cy2 and TOPRO-3 staining based confocal microscopic method; type: functional
B16F10Nex2 [21] = experiment: Induction of morphological changes in mouse B16F10Nex2 cells assessed as retraction of cell protrusions at 10 uM incubated for 24 hrs by tubulin-Cy2 and TOPRO-3 staining based confocal microscopic method; type: functional
B16F10Nex2 [22] = experiment: Induction of morphological changes in mouse B16F10Nex2 cells assessed as depolymerisation of F-actin at 10 uM incubated for 24 hrs by tubulin-Cy2 and TOPRO-3 staining based confocal microscopic method; type: functional, cell-based
B16F10Nex2 [23] = experiment: Induction of morphological changes in mouse B16F10Nex2 cells assessed as membrane blebbing at 10 uM incubated for 24 hrs by tubulin-Cy2 and TOPRO-3 staining based confocal microscopic method; type: functional, cell-based
HT-144 [24] = experiment: Induction of morphological changes in human HT144 cells assessed as retraction of cell protrusions at 10 uM incubated for 24 hrs by tubulin-Cy2 and TOPRO-3 staining based confocal microscopic method; type: functional
HT-144 [25] = experiment: Induction of morphological changes in human HT144 cells assessed as depolymerisation of F-actin at 10 uM incubated for 24 hrs by tubulin-Cy2 and TOPRO-3 staining based confocal microscopic method; type: functional, cell-based
HT-144 [26] = experiment: Induction of morphological changes in human HT144 cells assessed as reduction in stress fibers formation by measuring cell rounding at 30 uM incubated for 24 hrs by phalloidin-TRITC, tubulin-Cy2 and TOPRO-3 staining based confocal microscopic method; type: functional
HT-144 [27] = experiment: Induction of morphological changes in human HT144 cells assessed as reduction in stress fibers formation by measuring remaining cortical actin in close association with the microtubule network at 30 uM incubated for 24 hrs by phalloidin-TRITC, tubulin-Cy2 and TOPRO-3 staining based confocal microscopic method; type: functional, cell-based
B16F10Nex2 [28] = experiment: Antitumor activity against mouse B16F10Nex2 cells transplanted in C57BL/6 mouse assessed as reduction in lung metastases at 20 uM, ip administered for 5 non-consecutive days and measured 21 days post transplantation relative to control; type: functional; set-up: scale not given: the % may be the effect or the level left
HT-144 [29] = experiment: Induction of morphological changes in human HT144 cells assessed as cell rounding with remaining cortical actin in close association with the microtubule network at 30 uM incubated for 24 hrs by phalloidin-TRITC, tubulin-Cy2 and TOPRO-3 staining based confocal microscopic method; type: functional
HUVEC [30] = experiment: Anti-angiogenic activity in human HUVEC cells assessed as inhibition in pro-angiogenic structures formation in presence of fetal calf serum at 0.5 uM incubated for 18 hrs by inverted light microscopy based matrigel assay; type: functional
HUVEC [31] = experiment: Antimigratory activity against human HUVEC cells assessed as reduction in cell migration towards wound area at 20 uM measured every hour for 24 hrs by scratch wound-healing assay relative to control; type: functional

Sequence of Cathepsin S (Homo sapiens) (P25774 115-331 limits assumed): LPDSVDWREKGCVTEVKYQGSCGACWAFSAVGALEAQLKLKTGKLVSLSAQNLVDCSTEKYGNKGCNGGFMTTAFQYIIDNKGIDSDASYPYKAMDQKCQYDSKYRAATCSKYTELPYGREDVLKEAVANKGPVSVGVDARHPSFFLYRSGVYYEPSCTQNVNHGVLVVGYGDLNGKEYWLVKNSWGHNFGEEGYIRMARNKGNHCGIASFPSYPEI
Sequence of Procathepsin L (Homo sapiens) (P07711 114-333 limits assumed): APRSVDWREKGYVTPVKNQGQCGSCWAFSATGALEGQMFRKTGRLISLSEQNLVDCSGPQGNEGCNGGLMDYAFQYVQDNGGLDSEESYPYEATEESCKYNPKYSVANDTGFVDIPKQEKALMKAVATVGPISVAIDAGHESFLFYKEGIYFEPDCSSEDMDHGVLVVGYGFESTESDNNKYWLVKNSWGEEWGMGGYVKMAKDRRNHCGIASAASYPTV

SMILES: CCCC[Te](Cl)(Cl)c1ccccc1[C@H](C)OC
- Activity (HT-144 [1]): Active
- Activity (HT-144 [2]): Active
- K [3]: 7400 M⁻¹ s⁻¹
- K [4]: 8700 M⁻¹ s⁻¹
- K [5]: 600000 M⁻¹ s⁻¹
- Activity (B16F10Nex2 [6]): Dose-dependent effect
- IC50 (B16F10Nex2 [6]): 0.9 mM
- IC50 (HUVEC [7]): 2.8 mM
- Activity (HUVEC [7]): Dose-dependent effect
- IC50 (NIH3T3): 3.1 mM
- Activity (NIH3T3): Dose-dependent effect
- Activity (SK-MEL-25): Dose-dependent effect
- IC50 (SK-MEL-25): 2.5 mM
- Activity (SK-MEL-28): Dose-dependent effect
- IC50 (SK-MEL-28): 3.1 mM
- Activity (A2058): Dose-dependent effect
- IC50 (A2058): 1.5 mM
- Activity (MeWo): Dose-dependent effect
- IC50 (MeWo): 3.2 mM
- Activity (HeLa): Dose-dependent effect
- IC50 (HeLa): 0.8 mM
- Activity (HT-144 [8]): Dose-dependent effect
- fold change (FC) (B16F10Nex2 [9]): 7
- inhibition at 0.062 µM (HUVEC [10]): 55%
- inhibition (B16F10Nex2 [11]): Active
- inhibition (B16F10Nex2 [12]): Active
- inhibition (B16F10Nex2 [13]): Active
- inhibition (B16F10Nex2 [14]): Active
- inhibition at 20 µM (B16F10Nex2 [15]): 80%
- Activity (HUVEC [16]): Active
- inhibition at 20 µM (B16F10Nex2 [17]): 80%
- Activity (B16F10Nex2 [18]): Active
- Activity (HT-144 [19]): Active
- Activity (B16F10Nex2 [20]): Active
- Activity (B16F10Nex2 [21]): Active
- Activity (B16F10Nex2 [22]): Active
- Activity (B16F10Nex2 [23]): Active
- Activity (HT-144 [24]): Active
- Activity (HT-144 [25]): Active
- Activity (HT-144 [26]): Active
- Activity (HT-144 [27]): Active
- Activity (B16F10Nex2 [28]): 85%
- Activity (HT-144 [29]): Active

SMILES: CCCC[Te](Cl)(Cl)c1ccccc1[C@@H](C)OC
- Activity (HT-144 [1]): Active
- Activity (HT-144 [2]): Active
- K [3]: 3700 M⁻¹ s⁻¹
- K [4]: 5500 M⁻¹ s⁻¹
- K [5]: 39000 M⁻¹ s⁻¹
- Activity (B16F10Nex2 [6]): Dose-dependent effect
- IC50 (B16F10Nex2 [6]): 2.3 mM
- IC50 (HUVEC [7]): 20.3 mM
- Activity (HUVEC [7]): Dose-dependent effect
- IC50 (NIH3T3): 11.5 mM
- Activity (NIH3T3): Dose-dependent effect
- Activity (SK-MEL-25): Dose-dependent effect
- IC50 (SK-MEL-25): 18 mM
- Activity (SK-MEL-28): Dose-dependent effect
- IC50 (SK-MEL-28): 6.2 mM
- Activity (A2058): Dose-dependent effect
- IC50 (A2058): 5.5 mM
- Activity (MeWo): Dose-dependent effect
- IC50 (MeWo): 9.5 mM
- Activity (HeLa): Dose-dependent effect
- IC50 (HeLa): 2.3 mM
- Activity (HT-144 [8]): Dose-dependent effect
- fold change (FC) (B16F10Nex2 [9]): 2
- inhibition at 0.5 µM (HUVEC [30]): 45%
- inhibition (B16F10Nex2 [11]): Active
- inhibition (B16F10Nex2 [12]): Active
- inhibition (B16F10Nex2 [13]): Active
- inhibition (B16F10Nex2 [14]): Active
- inhibition at 20 µM (B16F10Nex2 [15]): 80%
- inhibition at 20 µM (HUVEC [31]): 33%
- Activity (HUVEC [16]): Active
- inhibition at 20 µM (B16F10Nex2 [17]): 80%
- Activity (B16F10Nex2 [18]): Active
- Activity (HT-144 [19]): Active
- Activity (B16F10Nex2 [20]): Active
- Activity (B16F10Nex2 [21]): Active
- Activity (B16F10Nex2 [22]): Active
- Activity (B16F10Nex2 [23]): Active
- Activity (HT-144 [24]): Active
- Activity (HT-144 [25]): Active
- Activity (HT-144 [26]): Active
- Activity (HT-144 [27]): Active
- Activity (B16F10Nex2 [28]): 58%
- Activity (HT-144 [29]): Active

From ChEMBL document CHEMBL4340535, “Antitumor effect of chiral organotelluranes elicited in a murine melanoma model” (Bioorg Med Chem, 2019)
